In patent US20250195530A1, “POLQ INHIBITORS” (ASTRAZENECA AB, priority 2022, published 2025):
Read-outs that look alike come from different tables or passages of the source.

Experiments:
[1] = tested on: DLD-1 cells; experiment: Inhibition of proliferation, DLD-1 BRCA2 wt control (Cell Titre Glo 3D); assay type: cell-based; conditions: Homo sapiens, read-out: POLQ PD Prolif Lumin (converted)
Outline: (§1)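 Read-out: CellTiter-Glo 3D luminescence, day 7 for wt DLD-1, day 12 for BRCA2−/−, about 8-9 population doublings each. Seeding 1,500 or 3,000 cells/mL respectively. Dose range 10 μM–0.51 nM, 3-fold, 10 points, with re-dosing on day 6. IC50 from curve fit.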

[2] = tested on: DLD-1 BRCA2−/− cells; experiment: Homologous recombination synthetic lethal inhibition of proliferation, DLD-1 BRCA2-/- (Cell Titre Glo 3D); assay type: cell-based; conditions: Homo sapiens, taken as DLD-1 BRCA2-/-, read-out: POLQ PD Prolif Lumin (converted)
Outline: as §1

[3] = DLD-1, second proliferation column (c6), taken as DLD-1 BRCA2 wt
[4] = DLD-1, first proliferation column (c5)
[5] = DLD-1, proliferation, luminescence, second Prolif column (c6), taken as DLD-1 BRCA2 wt control
[6] = DLD-1, proliferation, luminescence

Structure (SMILES): Cc1ccnc(Cn2c(-c3ccc(CC(=O)NC[C@H](C)O)cc3Cl)nc3c(OC4(C)CC4)ncnc32)c1 [Example T371, (S)-2-(3-chloro-4-(6-(1-methylcyclopropoxy)-9-((4-methylpyridin-2-yl)methyl)-9H-purin-8-yl)phenyl)-N-(2-hydroxypropyl)acetamide]
- IC50 [1, 3]: > 10 µM
- IC50 [2, 4]: 1 µM

Structure (SMILES): CN(C)CCCOc1ccc(-c2nc3c(OC4(C)CC4)nccc3n2Cc2cc(Cl)ccn2)c(Cl)c1 [Example T377, 3-(3-chloro-4-(1-((4-chloropyridin-2-yl)methyl)-4-(1-methylcyclopropoxy)-1H-imidazo[4,5-c]pyridin-2-yl)phenoxy)-N,N-dimethylpropan-1-amine]
- IC50 [1, 3]: > 7.94 µM
- IC50 [2, 4]: 0.158 µM

Structure (SMILES): CC1(Oc2ncnc3c2nc(-c2ccc(OCCN4CCNCC4)cc2Cl)n3Cc2ccnc(Cl)c2)CC1 [Example T378, 8-(2-chloro-4-(2-(piperazin-1-yl)ethoxy)phenyl)-9-((2-chloropyridin-4-yl)methyl)-6-(1-methylcyclopropoxy)-9H-purine]
- IC50 [1, 3]: > 10 µM
- IC50 [2, 4]: 1.58 µM

Structure (SMILES): CC1(Oc2ncnc3c2nc(-c2ccc(OCCN4CCNCC4)cc2Cl)n3Cc2cncc(Cl)c2)CC1 [Example T379, 8-(2-chloro-4-(2-(piperazin-1-yl)ethoxy)phenyl)-9-((5-chloropyridin-3-yl)methyl)-6-(1-methylcyclopropoxy)-9H-purine]
- IC50 [1, 3]: > 10 µM
- IC50 [2, 4]: 0.251 µM

Structure (SMILES): CC1(Oc2ncnc3c2nc(-c2ccc(OCCN4CCN(S(=O)(=O)O)CC4)cc2Cl)n3Cc2cc(Cl)ccn2)CC1 [Example T380, 4-(2-(3-chloro-4-(9-((4-chloropyridin-2-yl)methyl)-6-(1-methylcyclopropoxy)-9H-purin-8-yl)phenoxy)ethyl)piperazine-1-sulfonic acid]
- IC50 [1, 3]: > 10 µM
- IC50 [2, 4]: 7.94 µM

Structure (SMILES): Cc1ccnc(Cn2c(-c3ccc(OCCC(C)(C)O)cc3Cl)nc3c(OC4(C)CC4)ncnc32)c1 [Example T382, 4-(3-chloro-4-(6-(1-methylcyclopropoxy)-9-((4-methylpyridin-2-yl)methyl)-9H-purin-8-yl)phenoxy)-2-methylbutan-2-ol]
- IC50 [1, 3]: > 10 µM
- IC50 [2, 4]: 0.1 µM

Structure (SMILES): Cc1ccnc(Cn2c(-c3ccc(OCCCN(C)C)cc3Cl)nc3c(OC4(C)CC4)ncnc32)c1 [Example T385, 3-(3-chloro-4-(6-(1-methylcyclopropoxy)-9-((4-methylpyridin-2-yl)methyl)-9H-purin-8-yl)phenoxy)-N,N-dimethylpropan-1-amine]
- IC50 [1, 3]: > 10 µM
- IC50 [2, 4]: 0.0794 µM

Structure (SMILES): Cc1ccnc(Cn2c(-c3cccc(OCCCN(C)C)c3Cl)nc3c(OC4(C)CC4)ncnc32)c1 [Example T386, 3-(2-chloro-3-(6-(1-methylcyclopropoxy)-9-((4-methylpyridin-2-yl)methyl)-9H-purin-8-yl)phenoxy)-N,N-dimethylpropan-1-amine]
- IC50 [1, 3]: > 10 µM
- IC50 [2, 4]: 0.1 µM

Structure (SMILES): Cc1cnc(Cn2c(-c3ccc(OCCCN4CCCC4)cc3Cl)nc3c(OC4(C)CC4)ncnc32)s1 [Example T388, 2-((8-(2-chloro-4-(3-(pyrrolidin-1-yl)propoxy)phenyl)-6-(1-methylcyclopropoxy)-9H-purin-9-yl)methyl)-5-methylthiazole]
- IC50 [1, 3]: > 10 µM
- IC50 [2, 4]: 0.251 µM

Structure (SMILES): Cc1cnc(Cn2c(-c3ccc(OCCCN4CC[C@@H](O)C4)cc3Cl)nc3c(OC4(C)CC4)ncnc32)s1 [Example T391, (R)-1-(3-(3-chloro-4-(6-(1-methylcyclopropoxy)-9-((5-methylthiazol-2-yl)methyl)-9H-purin-8-yl)phenoxy)propyl)pyrrolidin-3-ol]
- IC50 [1, 5]: > 10 µM
- IC50 [2, 6]: 0.501 µM

Structure (SMILES): Cc1cnc(Cn2c(-c3cccc(OCCCN4CC[C@@H](O)C4)c3Cl)nc3c(OC4(C)CC4)ncnc32)s1 [Example T392, (R)-1-(3-(2-chloro-3-(6-(1-methylcyclopropoxy)-9-((5-methylthiazol-2-yl)methyl)-9H-purin-8-yl)phenoxy)propyl)pyrrolidin-3-ol]
- IC50 [1, 5]: 0.794 µM
- IC50 [2, 6]: 0.794 µM

Structure (SMILES): Cc1cnc(Cn2c(-c3ccc(OCCN4CCNC[C@@H]4C)cc3Cl)nc3c(OC4(C)CC4)ncnc32)s1 [Example T393, (S)-2-((8-(2-chloro-4-(2-(2-methylpiperazin-1-yl)ethoxy)phenyl)-6-(1-methylcyclopropoxy)-9H-purin-9-yl)methyl)-5-methylthiazole]
- IC50 [1, 5]: > 10 µM
- IC50 [2, 6]: 0.794 µM

Structure (SMILES): C[C@H](CCOc1ccc(-c2nc3c(OC4(C)CC4)ncnc3n2Cc2cccc(C#N)c2)c(Cl)c1)C(=O)O [Example T401, (R)-4-(3-chloro-4-(9-(3-cyanobenzyl)-6-(1-methylcyclopropoxy)-9H-purin-8-yl)phenoxy)-2-methylbutanoic acid]
- IC50 [1, 5]: > 10 µM
- IC50 [2, 6]: 0.398 µM

Structure (SMILES): C[C@H](CCOc1ccc(-c2nc3c(OC4(C)CC4)ncnc3n2Cc2ccccc2C#N)c(Cl)c1)C(=O)O [Example T402, (R)-4-(3-chloro-4-(9-(2-cyanobenzyl)-6-(1-methylcyclopropoxy)-9H-purin-8-yl)phenoxy)-2-methylbutanoic acid]
- IC50 [1, 5]: > 10 µM
- IC50 [2, 6]: 0.398 µM

Structure (SMILES): C[C@@H](CCOc1ccc(-c2nc3c(OC4(C)CC4)ncnc3n2Cc2ccccc2C#N)c(Cl)c1)C(=O)O [Example T403, (S)-4-(3-chloro-4-(9-(2-cyanobenzyl)-6-(1-methylcyclopropoxy)-9H-purin-8-yl)phenoxy)-2-methylbutanoic acid]
- IC50 [1, 5]: > 10 µM
- IC50 [2, 6]: 0.398 µM

Structure (SMILES): CC1(Oc2cccc3c2nc(-c2ccc(OCCC(=O)O)cc2Cl)n3Cc2cccc(Cl)c2)CCC1 [Example T406, 3-(3-chloro-4-(1-(3-chlorobenzyl)-4-(1-methylcyclobutoxy)-1H-benzo[d]imidazol-2-yl)phenoxy)propanoic acid]
- IC50 [1, 5]: > 10 µM
- IC50 [2, 6]: 2 µM

Structure (SMILES): CC1(Oc2ncnc3c2nc(-c2ccc(OCCC4(C(=O)O)CC4)cc2Cl)n3Cc2cccc(Cl)c2)CC1 [Example T407, 1-(2-(3-chloro-4-(9-(3-chlorobenzyl)-6-(1-methylcyclopropoxy)-9H-purin-8-yl)phenoxy)ethyl)cyclopropane-1-carboxylic acid]
- IC50 [1, 5]: > 10 µM
- IC50 [2, 6]: 0.316 µM

Structure (SMILES): Cc1ccnc(Cn2c(-c3ccc(C(=O)N4CCC(F)CC4)cc3Cl)nc3c(OC4(C)CC4)ncnc32)c1 [Example T419, (3-chloro-4-(6-(1-methylcyclopropoxy)-9-((4-methylpyridin-2-yl)methyl)-9H-purin-8-yl)phenyl)(4-fluoropiperidin-1-yl)methanone]
- IC50 [1, 5]: > 10 µM
- IC50 [2, 6]: 1 µM

Structure (SMILES): Cc1ccnc(Cn2c(-c3ccc(CC(=O)N4C[C@@H](O)[C@H](F)C4)cc3Cl)nc3c(OC4(C)CC4)ncnc32)c1 [Example T422, 2-(3-chloro-4-(6-(1-methylcyclopropoxy)-9-((4-methylpyridin-2-yl)methyl)-9H-purin-8-yl)phenyl)-1-((3R,4R)-3-fluoro-4-hydroxypyrrolidin-1-yl)ethan-1-one]
- IC50 [1, 5]: > 10 µM
- IC50 [2, 6]: 1 µM

Structure (SMILES): FC(F)(F)C1(Oc2ncnc3c2nc(-c2ccc(OCCN4CCNCC4)cc2Cl)n3Cc2ccccc2)COC1 [Example T424, 9-benzyl-8-(2-chloro-4-(2-(piperazin-1-yl)ethoxy)phenyl)-6-((3-(trifluoromethyl)oxetan-3-yl)oxy)-9H-purine]
- IC50 [1, 5]: 10 µM
- IC50 [2, 6]: 2 µM

Structure (SMILES): CC1(Oc2ncnc3c2nc(-c2ccc(OCCCN4CC(O)C4)cc2Cl)n3Cc2cc(C(F)(F)F)ccn2)CC1 [Example T425, 1-(3-(3-chloro-4-(6-(1-methylcyclopropoxy)-9-((4-(trifluoromethyl)pyridin-2-yl)methyl)-9H-purin-8-yl)phenoxy)propyl)azetidin-3-ol]
- IC50 [1, 5]: > 10 µM
- IC50 [2, 6]: 0.501 µM

Structure (SMILES): Cc1ccnc(Cn2c(-c3ccc(C(=O)N4CC5CC(C4)N5)cc3Cl)nc3c(OC4(C)CC4)ncnc32)c1 [Example T427, (3,6-diazabicyclo[3.1.1]heptan-3-yl)(3-chloro-4-(6-(1-methylcyclopropoxy)-9-((4-methylpyridin-2-yl)methyl)-9H-purin-8-yl)phenyl)methanone]
- IC50 [1, 5]: > 10 µM
- IC50 [2, 6]: 7.94 µM

Structure (SMILES): Cc1ccnc(Cn2c(-c3ccc(C(=O)N4CC5(CNC5)C4)cc3Cl)nc3c(OC4(C)CC4)ncnc32)c1 [Example T428, (3-chloro-4-(6-(1-methylcyclopropoxy)-9-((4-methylpyridin-2-yl)methyl)-9H-purin-8-yl)phenyl)(2,6-diazaspiro[3.3]heptan-2-yl)methanone]
- IC50 [1, 5]: > 10 µM
- IC50 [2, 6]: > 10 µM

Structure (SMILES): Cc1ccnc(Cn2c(-c3ccc(C(=O)N4CC5(CCN5)C4)cc3Cl)nc3c(OC4(C)CC4)ncnc32)c1 [Example T429, (3-chloro-4-(6-(1-methylcyclopropoxy)-9-((4-methylpyridin-2-yl)methyl)-9H-purin-8-yl)phenyl)(1,6-diazaspiro[3.3]heptan-6-yl)methanone]
- IC50 [1, 5]: > 10 µM
- IC50 [2, 6]: 1.26 µM

Structure (SMILES): Cc1ccnc(Cn2c(-c3ccc(CC(=O)N4CCNC(=O)C4)cc3Cl)nc3c(OC4(C)CC4)ncnc32)c1 [Example T431, 4-(2-(3-chloro-4-(6-(1-methylcyclopropoxy)-9-((4-methylpyridin-2-yl)methyl)-9H-purin-8-yl)phenyl)acetyl)piperazin-2-one]
- IC50 [1, 5]: > 10 µM
- IC50 [2, 6]: 2.51 µM

Structure (SMILES): CC1(Oc2ncnc3c2nc(-c2ccc(OCCC(C)(C)C(=O)O)cc2Cl)n3Cc2cccc(Cl)c2)CC1 [Example T435, 4-(3-chloro-4-(9-(3-chlorobenzyl)-6-(1-methylcyclopropoxy)-9H-purin-8-yl)phenoxy)-2,2-dimethylbutanoic acid]
- IC50 [1, 5]: > 10 µM
- IC50 [2, 6]: 0.2 µM
